# Measured values: patent publication US5213788A, “Physically and chemically stabilized polyatomic clusters for magnetic resonance image and spectral enhancement” (priority 1991, dated 1993)
# Experiments:
# [1] = system: red cells; details: cited from earlier work
# [2] = system: VX2 carcinomas; experiment: Histochemical platinum stain of tumor tissues after intraarterial perfusion; type: in vivo, rabbit; details: selective arterial perfusion
# Procedure: At 5 to 15 minutes postinjection, the animals were sacrificed, their lungs removed and fixed with intratracheal buffered formalin, tissue sections cut at 8 microns thickness, and the sections stained using a newly devised method for platinum which comprises a microwave-augmented iron-type stain (60° C.×2 minute×3 cycles) using a 1:1 mixture of 2% ferriferrocyanide reagent and 4% HCl. […] To those skilled in the art, additional evidence for selective lung localization, was obtained by injecting intravenously, analogous (subembolizing) heparincoated small microparticles containing encapsulated amphotericin B, into identical mice, homogenizing the lungs, and documenting an 8-fold increment in drug levels over native amphotericin B (deoxycholate formulation, Fungizone; Squibb) recovered at 1 to 3 hours postinjection.
# (§1) Additional documentation for maintenance of the cisplatin-carrier paired-ion complex in vivo was obtained as follows. […] Animals were sacrificed at 15 minutes, and the tumors and organs were homogenized extracted and analyzed by atomic absorption for tissue platinum concentrations, as shown in Table 1.
# Additionally, histochemical platinum stains were performed on the tumor tissues, as described in Example 7.
# Microinhomogeneities of tissue heating represent a major problem in hyperthermia treatment of tumors. […]
# [3] = system: VX2 carcinomas of the right hind limb; experiment: Tissue platinum content by atomic absorption after selective intraarterial perfusion; type: in vivo; details: 15 mg cisplatin per rabbit intraarterially over 15 minutes
# Procedure: as §1
# [4] = system: CBA/J mice; experiment: Tetany / toxicity following intravenous injection; type: in vivo; details: 10 mg/25 gm body weight
# [5] = Complexation of exogenously added calcium ions (ionized calcium analyzer); type: binding
# [6] = system: BRO-strain human malignant melanomas; experiment: MR imaging of human malignant melanoma xenografts; type: in vivo, human tumor in Swiss nude mice
# Procedure: The strong paramagnetic metal ion, gadolinium (Gd^+3), was chelated stoichiometrically to DTPA-Dextran 70 polymer, whose preparation is described in Example 1, paragraph 2 (improved formulation). Swiss nude mice were inoculated with BRO-strain human malignant melanomas, and these were allowed to grow to a 1-1.5 cm diameter. Moderately T1-weighted MR imaging (TR=500 msec, TE=40 msec) was performed in a standard Diasonics™ medical imager and a 30-cm RF head coil, before and after intravenous injection of equivalent doses of Gd-DTPA-Dextran-70 (0.03 mmol Gd/kg) or Gd-DTPA (0.1 mmol/kg) contrast agent. […] It will also be recognized that much lower doses of the stronger superparamagnetics (including doses below about 0.01 mmol/kg, versus 0.1 mmol/kg for Gd-DTPA) can be used to obtain effective MRI contrast enhancement; and that much faster, more heavily T1-weighted pulse sequences can be implemented in the presence of intramolecularly superparamagnetic polyatomic complex-carrier polymer conjugates or paired-ion complexes.
# [7] = Blood and total body clearance; type: in vivo
# [8] = small-molecular contrast agents; cited from earlier work
# [9] = usually; cited from earlier work
# [10] = system: tumor interstitium; details: in vivo; cited from earlier work
# [11] = system: malignant breast tumor; details: by 30 minutes postcontrast; cited from earlier work
compound,measurement,setting,value
"[O]=[51Cr](=[O])([O-])[O-] [^51 Chromium, ^51 CrO4^-2]",Average rate of elution from red cells,[1],0.93 % per day
"N.N.[Cl][Pt][Cl] [cisplatin, cis-dichlorodiamine platinum]",Intracellular tumor-cell platinum staining,[2],aggregated staining was absent
"Cisplatin-DTPA-Dextran (70,000 MW) [DTPA-dextran cisplatin]","Platinum content, Kidney",[3],"2.92 ng/mg of tissue, wet weight"
same,"Platinum content, Liver",[3],"3.47 ng/mg of tissue, wet weight"
same,"Platinum content, Blood",[3]; Ipsilateral,"2.14 ng/mg of tissue, wet weight"
same,"Platinum content, Muscle",[3]; Ipsilateral,"0.29 ng/mg of tissue, wet weight"
same,"Platinum content, Tumor",[3]; Ipsilateral,"10.81 ng/mg of tissue, wet weight"
same,Tetany / toxicity following intravenous injection,[4],elimination of tetany
same,Complexation of exogenously added calcium ions by the DTPA groups,[5],reduction in the complexation of exogenously added calcium ions
gadolinium diethylenetriamine pentaacetic acid [Gd-DTPA],Fading of tumor enhancement,"[6]; by one hour, 0.1 mmol/kg",completely faded
same,Time to begin to optimally enhance the tumors,"[6]; intravenous, Gd-DTPA-dextran 0.03 mmol Gd/kg, Gd-DTPA 0.1 mmol/kg",10 min
same,Blood clearance t1/2,[7],20 min
same,"Initial biodistribution, share of total body water",[8],ca. 35%
same,Retained fraction,[9],less than 0.5%
same,Retention in tumor interstitium,[10],10 to 45 min
gadolinium diethylenetriamine pentaacetic acid dimeglumine [Gd-DTPA dimeglumine],"Tumor fading, in words",[11],almost complete fading (tumor clearance)
